Source: EP4745137A1 (Gluetacs Therapeutics (Shanghai) Co., Ltd., priority 2023, dated 2025)

Columns and labels:
WEE1 = biological target: T1, WEE1 (Homo sapiens, UniProt P30291+Q96SW2); assay: Western-blot assay of substrate protein degradation in hPBMCs, WEE1; type: cell-based; conditions: 24 hours of compound treatment, compounds tested at 50 nM and 500 nM (concentration of the table not stated)
T1 construct: endogenous in cells; host or cells: hPBMCs (Milecell Biotechnologies)

IKZF1 = biological target: T2, IKZF1 (Homo sapiens, UniProt Q13422+Q96SW2); assay: Western-blot assay of substrate protein degradation in hPBMCs, IKZF1; type: cell-based; conditions: 24 hours of compound treatment, compounds tested at 50 nM and 500 nM (concentration of the table not stated)
T2 construct: endogenous in cells; host or cells: hPBMCs (Milecell Biotechnologies)

IKZF2 = biological target: T3, IKZF2 (Homo sapiens, UniProt Q96SW2+Q9UKS7); assay: Western-blot assay of substrate protein degradation in hPBMCs, IKZF2; type: cell-based; conditions: 24 hours of compound treatment, compounds tested at 50 nM and 500 nM (concentration of the table not stated)
T3 construct: endogenous in cells; host or cells: hPBMCs (Milecell Biotechnologies)

IKZF3 = biological target: T4, IKZF3 (Homo sapiens, UniProt Q96SW2+Q9UKT9); assay: Western-blot assay of substrate protein degradation in hPBMCs, IKZF3; type: cell-based; conditions: 24 hours of compound treatment, compounds tested at 50 nM and 500 nM (concentration of the table not stated)
T4 construct: endogenous in cells; host or cells: hPBMCs (Milecell Biotechnologies)

CK1α = biological target: T5, CK1α (Homo sapiens, UniProt P48729+Q96SW2); assay: Western-blot assay of substrate protein degradation in hPBMCs, CK1α; type: cell-based; conditions: 24 hours of compound treatment, compounds tested at 50 nM and 500 nM (concentration of the table not stated)
T5 construct: endogenous in cells; host or cells: hPBMCs (Milecell Biotechnologies)

GSPT1 = biological target: T6, GSPT1 (Homo sapiens, UniProt P15170+Q96SW2); assay: Western-blot assay of substrate protein degradation in hPBMCs, GSPT1; type: cell-based; conditions: 24 hours of compound treatment, compounds tested at 50 nM and 500 nM (concentration of the table not stated)
T6 construct: endogenous in cells; host or cells: hPBMCs (Milecell Biotechnologies)

[1] = biological target: T7, human Cereblon WT GST-tagged protein (Homo sapiens, UniProt Q96SW2); assay: CRBN-binding affinity by HTRF (CEREBLON BINDING kit); conditions: HTRF inhibitory activity, CEREBLON BINDING kit; read-out: HTRF IC50
T7 construct: purchased CISBIO 64BDCRBNPEH

SR = assay: Tumor cell proliferation inhibition (CellTiter-Meiluncell Luminescent Cell Viability Assay), SR; conditions: Homo sapiens, 96 h, read-out: inhibitory activity (IC50, nM) against tumor cells proliferation, SR
Method: (§1) The tumor cells used herein were cultured in a cell culture medium listed in table 2 at 37°C in an incubator with 5% CO2. Prior to experimentation, all cell lines used were correctly identified by STR profiling, and tested negative for mycoplasma contamination using a mycoplasma detection kit through routine screenings.
(§2) On the following day, the test compounds of the present disclosure were subjected to serial dilution. […] Subsequently, 0.5 µL of the test compound dilution was transferred into the 96-well plate containing the cells, with each well containing 100 µL of cell culture medium. […] Into the 96-well plate, the diluted test compounds and corresponding detection reagents were added, resulting in final test compound concentrations of 500 nM and 10 nM, respectively.
(§3) After the cells were treated with the compounds of the present disclosure for a specified period (the treatment durations were shown in Table 3), the cell viability assay reagent was added to the culture medium according to the kit's instructions to determine cell viability. […] All controls were treated using the same procedure as the compounds of the present disclosure. The growth inhibition curves for the compounds of the present disclosure were plotted using Prism GraphPad software, and the IC50 values were calculated therefrom.

Vcap = assay: Tumor cell proliferation inhibition (CellTiter-Meiluncell Luminescent Cell Viability Assay), Vcap; conditions: Homo sapiens, 96 h, read-out: inhibitory activity (IC50, nM) against tumor cells proliferation, Vcap
MM.1R = assay: Tumor cell proliferation inhibition (CellTiter-Meiluncell Luminescent Cell Viability Assay), MM.1R; conditions: Homo sapiens, 96 h, read-out: inhibitory activity (IC50, nM) against tumor cells proliferation, MM.1R
SW620 = assay: Tumor cell proliferation inhibition (CellTiter-Meiluncell Luminescent Cell Viability Assay), SW620; conditions: Homo sapiens, SW-620, 96 h, read-out: inhibitory activity (IC50, nM) against tumor cells proliferation, SW620
Jurkat = assay: Tumor cell proliferation inhibition (CellTiter-Meiluncell Luminescent Cell Viability Assay), Jurkat; conditions: Homo sapiens, 96 h, read-out: inhibitory activity (IC50, nM) against tumor cells proliferation, Jurkat
Method: as §1
On the following day, the test compounds of the present disclosure were subjected to serial dilution. […] Subsequently, 0.5 µL of the test compound dilution was transferred into the 96-well plate containing the cells, with each well containing 100 µL of cell culture medium. […] Into the 96-well plate, the diluted test compounds and corresponding detection reagents were added, resulting in final test compound concentrations of 500 nM and 10 nM, respectively. The experimental procedure is described below using the diluted 2 µM test compound as an example.
as §3

CAL-62 = assay: Tumor cell proliferation inhibition (CellTiter-Meiluncell Luminescent Cell Viability Assay), CAL-62; conditions: Homo sapiens, CAL-62, 96 h, read-out: inhibitory activity (IC50, nM) against tumor cells proliferation, CAL-62
[2] = test system: Human acute T lymphocytic leukemia cells (Molt-4); assay: Tumor cell proliferation inhibition (CellTiter-Meiluncell Luminescent Cell Viability Assay), Molt-4; conditions: MOLT-4, 96 h, read-out: inhibitory activity (IC50, nM) against tumor cells proliferation, Molt 4
MGC803 = assay: Tumor cell proliferation inhibition (CellTiter-Meiluncell Luminescent Cell Viability Assay), MGC803; conditions: Homo sapiens, MGC-803, 96 h, read-out: inhibitory activity (IC50, nM) against tumor cells proliferation, MGC803
Method: as §1, §2, §3

CCRF-CEM = assay: Tumor cell proliferation inhibition (CellTiter-Meiluncell Luminescent Cell Viability Assay), CCRF-CEM; conditions: Homo sapiens, 96 h, read-out: inhibitory activity (IC50, nM) against tumor cells proliferation, CCRF-CEM
NCI-H1975 = assay: Tumor cell proliferation inhibition (CellTiter-Meiluncell Luminescent Cell Viability Assay), NCI-H1975; conditions: Homo sapiens, NCI-H1975, 96 h, read-out: inhibitory activity (IC50, nM) against tumor cells proliferation, H1975
[3] = test system: Human breast cancer cells (MDA-MB-231); assay: Tumor cell proliferation inhibition (CellTiter-Meiluncell Luminescent Cell Viability Assay), MDA-MB-231; conditions: MDA-MB-231, 96 h, read-out: inhibitory activity (IC50, nM) against tumor cells proliferation, MDA-MB-231

T2 sequence (Q13422 whole entry): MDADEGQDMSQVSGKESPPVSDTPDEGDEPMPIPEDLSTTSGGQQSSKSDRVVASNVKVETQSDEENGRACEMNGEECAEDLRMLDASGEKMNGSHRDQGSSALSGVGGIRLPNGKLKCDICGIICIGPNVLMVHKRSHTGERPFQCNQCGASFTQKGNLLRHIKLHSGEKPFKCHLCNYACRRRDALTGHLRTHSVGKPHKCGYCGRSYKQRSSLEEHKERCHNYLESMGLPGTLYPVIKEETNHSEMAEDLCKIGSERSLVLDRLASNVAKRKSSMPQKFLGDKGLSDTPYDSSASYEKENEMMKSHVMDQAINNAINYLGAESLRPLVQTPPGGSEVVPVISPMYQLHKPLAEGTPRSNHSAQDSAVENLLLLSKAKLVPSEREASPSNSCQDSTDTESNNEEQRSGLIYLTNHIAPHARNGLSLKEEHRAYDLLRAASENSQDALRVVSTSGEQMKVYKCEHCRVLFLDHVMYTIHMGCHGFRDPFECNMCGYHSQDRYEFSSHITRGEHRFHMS
T2 sequence (Q96SW2 whole entry): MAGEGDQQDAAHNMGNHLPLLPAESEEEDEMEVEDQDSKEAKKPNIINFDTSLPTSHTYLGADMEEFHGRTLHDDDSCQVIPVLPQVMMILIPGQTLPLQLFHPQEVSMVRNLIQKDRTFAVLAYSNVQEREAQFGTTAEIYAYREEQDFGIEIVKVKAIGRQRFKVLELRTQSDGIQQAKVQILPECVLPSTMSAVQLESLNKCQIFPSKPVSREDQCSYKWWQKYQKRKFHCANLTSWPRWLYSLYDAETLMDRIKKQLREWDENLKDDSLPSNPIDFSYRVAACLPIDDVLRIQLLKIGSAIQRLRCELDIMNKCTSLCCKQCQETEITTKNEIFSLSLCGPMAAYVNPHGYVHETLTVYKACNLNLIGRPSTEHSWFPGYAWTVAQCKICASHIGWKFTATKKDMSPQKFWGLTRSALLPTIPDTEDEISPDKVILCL
T2 sequence (Q16531 whole entry partner): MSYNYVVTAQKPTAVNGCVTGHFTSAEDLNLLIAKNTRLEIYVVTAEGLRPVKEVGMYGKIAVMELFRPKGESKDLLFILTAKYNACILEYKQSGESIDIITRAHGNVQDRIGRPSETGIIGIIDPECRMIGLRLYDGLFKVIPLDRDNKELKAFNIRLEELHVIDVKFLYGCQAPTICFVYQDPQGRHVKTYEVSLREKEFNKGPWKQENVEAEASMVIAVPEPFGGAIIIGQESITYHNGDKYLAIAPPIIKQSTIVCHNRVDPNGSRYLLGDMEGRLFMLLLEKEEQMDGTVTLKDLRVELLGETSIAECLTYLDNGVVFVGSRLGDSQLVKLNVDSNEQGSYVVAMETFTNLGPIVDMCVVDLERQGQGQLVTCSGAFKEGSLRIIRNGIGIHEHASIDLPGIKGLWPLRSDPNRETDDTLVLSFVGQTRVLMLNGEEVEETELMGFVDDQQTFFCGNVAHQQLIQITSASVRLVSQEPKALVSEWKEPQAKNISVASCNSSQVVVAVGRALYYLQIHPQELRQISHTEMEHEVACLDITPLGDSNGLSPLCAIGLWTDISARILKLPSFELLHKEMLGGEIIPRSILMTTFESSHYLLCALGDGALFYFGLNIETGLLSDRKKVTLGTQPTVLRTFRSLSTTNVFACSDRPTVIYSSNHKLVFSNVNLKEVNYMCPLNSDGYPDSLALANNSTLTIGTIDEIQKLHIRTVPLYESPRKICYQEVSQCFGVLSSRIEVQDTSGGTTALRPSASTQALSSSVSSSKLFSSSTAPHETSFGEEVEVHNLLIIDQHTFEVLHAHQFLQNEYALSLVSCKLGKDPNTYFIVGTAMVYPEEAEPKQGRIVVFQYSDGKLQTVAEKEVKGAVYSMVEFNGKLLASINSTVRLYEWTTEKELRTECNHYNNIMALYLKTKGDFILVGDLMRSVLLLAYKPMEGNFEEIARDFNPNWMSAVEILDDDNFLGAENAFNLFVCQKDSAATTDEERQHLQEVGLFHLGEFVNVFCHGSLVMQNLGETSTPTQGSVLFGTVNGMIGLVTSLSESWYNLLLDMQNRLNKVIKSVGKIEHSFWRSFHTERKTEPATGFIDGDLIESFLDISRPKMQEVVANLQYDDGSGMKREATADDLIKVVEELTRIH
T5 sequence (P48729 whole entry): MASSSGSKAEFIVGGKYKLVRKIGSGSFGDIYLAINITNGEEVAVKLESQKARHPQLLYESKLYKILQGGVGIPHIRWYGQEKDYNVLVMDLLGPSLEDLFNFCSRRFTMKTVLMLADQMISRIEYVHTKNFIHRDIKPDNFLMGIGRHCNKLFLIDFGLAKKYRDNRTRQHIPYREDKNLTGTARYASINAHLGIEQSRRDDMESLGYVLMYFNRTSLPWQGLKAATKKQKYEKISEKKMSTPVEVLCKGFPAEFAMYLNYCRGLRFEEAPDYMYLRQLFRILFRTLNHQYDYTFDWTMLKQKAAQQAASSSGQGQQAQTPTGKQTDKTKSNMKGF
T5 sequence (Q96SW2 whole entry): as the sequence (Q96SW2 whole entry) above
T5 sequence (Q16531 whole entry partner): as the sequence (Q16531 whole entry partner) above
T7 sequence (Q96SW2 whole entry): as the sequence (Q96SW2 whole entry) above
T6 sequence (P15170 whole entry): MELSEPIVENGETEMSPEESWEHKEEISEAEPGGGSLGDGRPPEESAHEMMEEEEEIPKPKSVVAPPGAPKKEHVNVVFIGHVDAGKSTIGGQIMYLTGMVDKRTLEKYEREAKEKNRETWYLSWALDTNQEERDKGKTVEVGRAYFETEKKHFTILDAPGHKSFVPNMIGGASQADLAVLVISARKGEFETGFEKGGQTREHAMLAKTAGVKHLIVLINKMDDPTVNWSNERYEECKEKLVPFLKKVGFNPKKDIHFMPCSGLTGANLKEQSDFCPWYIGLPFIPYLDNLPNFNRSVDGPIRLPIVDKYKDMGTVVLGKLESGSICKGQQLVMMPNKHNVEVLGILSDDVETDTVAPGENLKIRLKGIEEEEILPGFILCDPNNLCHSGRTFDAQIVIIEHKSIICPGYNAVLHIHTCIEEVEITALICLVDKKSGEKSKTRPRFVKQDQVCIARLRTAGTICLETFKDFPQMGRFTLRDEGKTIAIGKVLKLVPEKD
T6 sequence (Q96SW2 whole entry): as the sequence (Q96SW2 whole entry) above
T6 sequence (Q16531 whole entry partner): as the sequence (Q16531 whole entry partner) above
T1 sequence (P30291 whole entry): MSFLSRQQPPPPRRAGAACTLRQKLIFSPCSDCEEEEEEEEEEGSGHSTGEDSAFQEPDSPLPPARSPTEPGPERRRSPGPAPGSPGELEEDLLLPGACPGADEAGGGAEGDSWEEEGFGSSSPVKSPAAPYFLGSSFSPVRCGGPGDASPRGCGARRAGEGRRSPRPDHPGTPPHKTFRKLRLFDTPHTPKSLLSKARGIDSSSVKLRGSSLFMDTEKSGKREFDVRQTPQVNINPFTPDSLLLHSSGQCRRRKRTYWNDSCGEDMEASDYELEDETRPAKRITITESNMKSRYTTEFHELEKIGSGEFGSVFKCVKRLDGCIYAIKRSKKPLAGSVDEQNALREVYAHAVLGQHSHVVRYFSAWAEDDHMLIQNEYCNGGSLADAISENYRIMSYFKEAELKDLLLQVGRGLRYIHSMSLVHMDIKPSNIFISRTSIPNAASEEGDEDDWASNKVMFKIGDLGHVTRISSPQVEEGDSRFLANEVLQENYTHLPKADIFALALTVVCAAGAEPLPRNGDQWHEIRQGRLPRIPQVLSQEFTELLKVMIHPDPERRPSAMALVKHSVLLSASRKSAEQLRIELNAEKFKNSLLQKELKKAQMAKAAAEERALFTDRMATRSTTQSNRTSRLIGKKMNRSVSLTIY
T1 sequence (Q96SW2 whole entry): as the sequence (Q96SW2 whole entry) above
T1 sequence (Q16531 whole entry partner): as the sequence (Q16531 whole entry partner) above
T3 sequence (Q9UKS7 whole entry): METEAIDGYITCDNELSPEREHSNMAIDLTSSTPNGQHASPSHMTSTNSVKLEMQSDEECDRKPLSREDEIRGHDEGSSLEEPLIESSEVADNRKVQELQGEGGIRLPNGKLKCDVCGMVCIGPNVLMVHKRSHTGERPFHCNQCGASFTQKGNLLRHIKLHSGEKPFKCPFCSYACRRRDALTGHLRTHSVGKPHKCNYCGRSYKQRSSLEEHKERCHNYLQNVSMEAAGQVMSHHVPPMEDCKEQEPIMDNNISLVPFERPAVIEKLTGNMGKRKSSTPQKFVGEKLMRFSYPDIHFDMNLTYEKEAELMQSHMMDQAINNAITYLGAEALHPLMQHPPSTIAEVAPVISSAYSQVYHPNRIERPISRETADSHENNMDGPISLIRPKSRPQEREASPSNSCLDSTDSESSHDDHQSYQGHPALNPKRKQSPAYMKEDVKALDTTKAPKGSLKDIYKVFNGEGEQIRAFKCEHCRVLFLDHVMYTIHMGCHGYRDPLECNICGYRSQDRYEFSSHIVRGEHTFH
T3 sequence (Q96SW2 whole entry): as the sequence (Q96SW2 whole entry) above
T3 sequence (Q16531 whole entry partner): as the sequence (Q16531 whole entry partner) above

SMILES | Weel substrate protein remaining % (WEE1) | IKZF 1 substrate protein remaining % (IKZF1) | IKZF2 substrate protein remaining % (IKZF2) | IKZF3 substrate protein remaining % (IKZF3) | CK1a substrate protein remaining % (CK1α) | GSPT1 substrate protein remaining % (GSPT1) | IC50 [1] [nM] | IC50 (SR) [nM] | IC50 (Vcap) [nM] | IC50 (MM.1R) [nM] | IC50 (SW620) [nM] | IC50 (Jurkat) [nM] | IC50 (CAL-62) [nM] | IC50 [2] [nM] | IC50 (MGC803) [nM] | IC50 (CCRF-CEM) [nM] | IC50 (NCI-H1975) [nM] | IC50 [3] [nM]
O=C1CCC(N2Cc3cc(CN4CCN(c5ccccc5Br)CC4)ccc3C2=O)C(=O)N1 (stereo not drawn) [GT-04456, 3-(5-((4-(2-bromophenyl)piperazin-1-yl)methyl)-1-oxoisoindolin-2-yl)piperidine-2,6-dione] | A (0% ≤ substrate protein remaining % ≤ 80%) | A (0% ≤ substrate protein remaining % ≤ 80%) | A (0% ≤ substrate protein remaining % ≤ 80%) | A (0% ≤ substrate protein remaining % ≤ 80%) | A (0% ≤ substrate protein remaining % ≤ 80%) | A (0% ≤ substrate protein remaining % ≤ 80%) | 500 to 1000 | 500 to 1000 | 50 to 100 | 10 to 50 | 100 to 500 | 5 to 10 | 10 to 50 | 10 to 50 | 100 to 500 | 5 to 10 | 100 to 500 | 100 to 500
Cc1cccc(N2CCN(Cc3ccc4c(c3)CN(C3CCC(=O)NC3=O)C4=O)CC2)c1 (stereo not drawn) [GT-04462, 3-(1-oxo-5-((4-(m-tolyl)piperazin-1-yl)methyl)isoindolin-2-yl)piperidine-2,6-dione] | A (0% ≤ substrate protein remaining % ≤ 80%) | A (0% ≤ substrate protein remaining % ≤ 80%) | A (0% ≤ substrate protein remaining % ≤ 80%) | A (0% ≤ substrate protein remaining % ≤ 80%) | A (0% ≤ substrate protein remaining % ≤ 80%) | A (0% ≤ substrate protein remaining % ≤ 80%) | 500 to 1000 | 10 to 50 | 5 to 10 | 1 to 5 | 10 to 50 | 10 to 50 | 10 to 50 | 1 to 5 | 10 to 50 | 1 to 5 | 10 to 50 | 10 to 50
Cc1ccc(N2CCN(Cc3ccc4c(c3)CN(C3CCC(=O)NC3=O)C4=O)CC2)cc1 (stereo not drawn) [GT-04463, 3-(1-oxo-5-((4-(p-tolyl)piperazin-1-yl)methyl)isoindolin-2-yl)piperidine-2,6-dione] | A (0% ≤ substrate protein remaining % ≤ 80%) | A (0% ≤ substrate protein remaining % ≤ 80%) | A (0% ≤ substrate protein remaining % ≤ 80%) | A (0% ≤ substrate protein remaining % ≤ 80%) | A (0% ≤ substrate protein remaining % ≤ 80%) | A (0% ≤ substrate protein remaining % ≤ 80%) | 1000 to 1500 | 500 to 1000 | 10 to 50 | 5 to 10 | 100 to 500 | 5 to 10 | 10 to 50 | 5 to 10 | 100 to 500 | 5 to 10 | 100 to 500 | 100 to 500
O=C1CCC(N2Cc3cc(CN4CCC(c5cccc(Br)c5)CC4)ccc3C2=O)C(=O)N1 (stereo not drawn) [GT-04466, 3-(5-((4-(3-bromophenyl)piperidin-1-yl)methyl)-1-oxoisoindolin-2-yl)piperidine-2,6-dione] | A (0% ≤ substrate protein remaining % ≤ 80%) | A (0% ≤ substrate protein remaining % ≤ 80%) | A (0% ≤ substrate protein remaining % ≤ 80%) | A (0% ≤ substrate protein remaining % ≤ 80%) | A (0% ≤ substrate protein remaining % ≤ 80%) | A (0% ≤ substrate protein remaining % ≤ 80%) | 500 to 1000 | 50 to 100 | 10 to 50 | 1 to 5 | 10 to 50 | 1 to 5 | 5 to 10 | 1 to 5 | 50 to 100 | 1 to 5 | 10 to 50 | 10 to 50
O=C1CCC(N2Cc3cc(CN4CCN(c5cccc(Br)c5)CC4)ccc3C2=O)C(=O)N1 (stereo not drawn) [GT-04467, 3-(5-((4-(3-bromophenyl)piperazin-1-yl)methyl)-1-oxoisoindolin-2-yl)piperidine-2,6-dione] | A (0% ≤ substrate protein remaining % ≤ 80%) | A (0% ≤ substrate protein remaining % ≤ 80%) | A (0% ≤ substrate protein remaining % ≤ 80%) | A (0% ≤ substrate protein remaining % ≤ 80%) | A (0% ≤ substrate protein remaining % ≤ 80%) | A (0% ≤ substrate protein remaining % ≤ 80%) | 500 to 1000 | 10 to 50 | 5 to 10 | 1 to 5 | 10 to 50 | 1 to 5 | 1 to 5 | 1 to 5 | 10 to 50 | 1 to 5 | 10 to 50 | 10 to 50
O=C1CCC(N2Cc3cc(CN4CCN(c5cc(Cl)ccc5Cl)CC4)ccc3C2=O)C(=O)N1 (stereo not drawn) [GT-04487, 3-(5-((4-(2,5-dichlorophenyl)piperazin-1-yl)methyl)-1-oxoisoindolin-2-yl)piperidine-2,6-dione] | B (80%< substrate protein remaining %≤ 100%) | B (80%< substrate protein remaining %≤ 100%) | A (0% ≤ substrate protein remaining % ≤ 80%) | B (80%< substrate protein remaining %≤ 100%) | A (0% ≤ substrate protein remaining % ≤ 80%) | A (0% ≤ substrate protein remaining % ≤ 80%) | 500 to 1000 | 100 to 500 | 10 to 50 | 10 to 50 | 100 to 500 | 5 to 10 | 10 to 50 | 5 to 10 | 50 to 100 | 5 to 10 | 50 to 100 | 100 to 500
Cc1cc(Cl)cc(N2CCN(Cc3ccc4c(c3)CN(C3CCC(=O)NC3=O)C4=O)CC2)n1 (stereo not drawn) [GT-04491, 3-(5-((4-(4-chloro-6-methylpyridin-2-yl)piperazin-1-yl)methyl)-1-oxoisoindolin-2-yl)piperidine-2,6-dione] | B (80%< substrate protein remaining %≤ 100%) | B (80%< substrate protein remaining %≤ 100%) | A (0% ≤ substrate protein remaining % ≤ 80%) | B (80%< substrate protein remaining %≤ 100%) | A (0% ≤ substrate protein remaining % ≤ 80%) | A (0% ≤ substrate protein remaining % ≤ 80%) | 500 to 1000 | 100 to 500 | 10 to 50 | 10 to 50 | 100 to 500 | 5 to 10 | 10 to 50 | 5 to 10 | 500 to 1000 | 5 to 10 | 100 to 500 | 100 to 500
